This is an account of results in US12728134B2, “Liquisolid pharmaceutical formulation and process for manufacturing” (RHEINISCHE FRIEDRICH-WILHELMS-UNIVERSITÄT BONN, priority 2020, dated 2026).

The nature of data set [1]: Solubility of poorly water-soluble APIs in propylene carbonate. Type of data set: physicochemical. Conditions: organic solvent or mixture, thermodynamic from solid, solvent added in 10 μl steps to about 20 mg, mean of three samples. The procedure: For a preliminary analysis, 1-2 mg of each compound was weighted in an Eppendorf tube and 1 ml propylene carbonate was added. The mixture was mixed with a metal spatula for 10 min each. The solubility of compounds, which were fully dissolved in the preliminary tests where than further analyzed. About 20 mg of each compound were used and under stirring with a metal spatula propylene carbonate was added in 10 μl steps.

The next data set can be described thus: physchem. Conditions: organic solvent or mixture, thermodynamic from solid.
Data set [2] in a line: Biphasic dissolution test (BiPHa+). Type of data set: in vitro ADME. The text has this: This approach was chosen to simulate the gastrointestinal properties to obtain in vivo predictive results.
The transition to the organic phase can be understood as absorption of active substances into the blood.
To simulate the gastrointestinal properties to obtain in vivo predictive results, the pH-profile, bile salt concentration and gastrointestinal passage time were adjusted in the aqueous phase to mimic human gut conditions. An organic phase of 1-decanol above the aqueous phase imitated the fraction absorbed from the gut. As a test model, the profile of a person without prior food intake was chosen. Therefore, FaSSIF-V2 medium, which represents the bile salts concentration of a fasted human was used. […] To generate an in-situ biorelevant aqueous medium for the fasted state, biorelevant surfactants, namely sodium-taurocholate (3 mM) and lecithin (0.2 mM), were added.
Prior to the start of the experiments, both phases, 1-decanol and the acidic aqueous phase, were saturated with each other. First, the respective formulation was added (Table 2) to 50 mL HCl (0.1 M), simulating the stomach. During the first 30 min the formulation disintegrated/dispersed in 50 ml of 0.1 M HCl. After 30 min FaSSIF-V2 concentrate (sodium-taurocholate and lecithin) was added simultaneously to the addition of citrate-phosphate buffer (tri-potassium phosphate and potassium citrate) resulting in a first pH-shift from pH 1 to pH 5.5, simulating the duodenum. Thereafter, 50 mL 1-decanol was added. […] The adjusted buffers were titrated by 0.1 M NaOH and 0.1 M HCl (pH 5.5-6.8). The whole dissolution took 4.5 hours.
For each compound, the biphasic dissolution test was performed in triplicate. In order to evaluate the liquisolid formulations in terms of their performance, each liquisolid formulation was compared to a respective commercially available formulation.
The market formulations (Originator) of the selected APIs were tested additionally to compare the performance against established marked products.

SMILES strings stand for the structures. Values after ≈ are worked out from the molar mass of the structure shown. Where a name gives a salt, the structure may show the parent alone.

Procedure for physchem: Therefore, 1 mg of each compound was weighted in an Eppendorf tube and 1 ml of solvent was added. The mixture was mixed with a metal spatula for 10 min each. […] About 20 mg of each compound were used and under stirring with a metal spatula the solvent was added in 10 μl steps.

Usually solubility stands for how much of the substance goes into solution per volume. For `COc1ccc2c(c1)c(CC(=O)O)c(C)n2C(=O)c1ccc(Cl)cc1` [Indomethacin], the solubility in data set [1] stood at 17.2 mg/mL (≈ 48.1 mM).

For `COC1=CC(=O)C[C@@H](C)[C@]12Oc1c(Cl)c(OC)cc(OC)c1C2=O` [Griseofulvin], the solubility in data set [1] came out at 16.8 mg/mL (≈ 47.7 mM).

`COCCOC(=O)C1=C(C)NC(C)=C(C(=O)OC(C)C)C1c1cccc([N+](=O)[O-])c1` (stereo not drawn) [Nimodipine]: the solubility in data set [1] amounted to 144 mg/mL (≈ 345 mM). Moreover, the solubility at 10 min in “physchem” was less than 1 mg/mL.

As to `CN(C)CCCN1c2ccccc2CCc2ccccc21` [Imipramine hydrochloride], the solubility in data set [1] came to 167 mg/mL.

On to `Cc1ccc(-c2cc(C(F)(F)F)nn2-c2ccc(S(N)(=O)=O)cc2)cc1` [Celecoxib], for which the solubility in data set [1] came to 267 mg/mL (≈ 699 mM); in the data set “physchem” (polyethylene glycol 400 (PEG 400)), 230 mg/mL (≈ 603 mM); in “physchem” (propylene glycol (PG)), 60.3 mg/mL (≈ 158 mM); in “physchem” (tetraglycole (TEG)), 244 mg/mL (≈ 641 mM). Moreover, the “Maximum Partitioned Drug in the Organic Phase” value in data set [2] (Market Formulation (Originator, Table 11)) is given as 41%; in data set [2] (PC Silsol ® Formulation (propylene carbonate on mesoporous silica)), 54%; in data set [2] (PEG 400 Silsol ® Formulation), 46%; in data set [2] (TEG Silsol ® Formulation), 53%. In addition, the “result of propylene carbonate formulation compared to commercially available market formulation” value in data set [2] (same in vitro biphasic dissolution conditions, in words) is “even better results”. Further, the solubility at 10 min in “physchem” (glycerol) is less than 1 mg/mL.

As for `CN1CCN(C2=Nc3cc(Cl)ccc3Nc3ccccc32)CC1` [Clozapine], in data set [1], the solubility amounted to 4.79 mg/mL (≈ 14.7 mM).

As to `CC(=O)Oc1ccc(C(c2ccc(OC(C)=O)cc2)c2ccccn2)cc1` [Bisacodyl], the solubility in data set [1] is 91.5 mg/mL (≈ 253 mM).

On to `Cc1ccc(S(=O)(=O)NC(=O)NN2CC3CCCC3C2)cc1` (stereo not drawn) [Gliclazide], for which the solubility in data set [1] was 32.3 mg/mL (≈ 99.8 mM).
